In patent publication US20240010726A1, “LFA-1 SIGNALLING MEDIATOR FOR USE IN CANCER THERAPY” (Universität Basel, priority 2020, published 2024):

Assays:
[1] = test system: MC38-OVA tumor cells; assay: Murine MC38-OVA tumor model, in vivo CD8+ T cell depletion; conditions: OVA immunized mice; 3 mM MgCl2 vs NaCl i.t.; anti-CD8a Ab 10 mg kg^−1 i.p. weekly
Protocol: FIG. 1: Intratumoral magnesium administration improves adaptive anti-tumor immunity. (a) Schematic of experimental design. B1/6 mice, either immunized with OVA or left untreated, were inoculated subcutaneously with MC38-OVA tumor cells bilaterally on the flanks. From day 7, injection of 3 mM NaCl solution was applied in left flank tumor, whereas 3 mM MgCl2 solution was injected in contralateral tumor. This regimen was repeated every third day for a total of 8 cycles. (b) Tumor growth curves in non-immunized mice (n=20) (left panel), and immunized mice (n=19) (right panel). (c) Tumor growth curves in ±CD8 depleted mice (n=6-17). Results were pooled from 2 independent experiments, with n=6-12 mice each. (d) Absolute numbers of tumor-infiltrating CD8^+ T cells. (e) Number of tumor-infiltrating CD8^+ T cells positive for Ki67 (left panel), Granzyme B (middle panel) and CD25 (right panel). (f) Cell number of tumor-infiltrating CD8^+ T cells expressing PD-1 and Tim3. (g) Schematic of experimental design. B1/6 mice, immunized with OVA, were inoculated subcutaneously with MC38-OVA tumor cells unilaterally on the flank. From day 5, intratumoral injections of either 3 mM NaCl or 3 mM MgCl2 were initiated, and repeated every third day for 8 cycles. Mice were additionally injected with 200 μg i.p. of isotype control (IgG2a) or anti-PD-1 Ab on day 9, 12, and 15. […]

[2] = test system: MC38-OVA tumor cells; assay: Murine MC38-OVA tumor model, intratumoral MgCl2 vs NaCl in bilateral tumors; type: in vivo, mice; conditions: for Tumor growth: 3 mM MgCl2 intratumoral vs 3 mM NaCl in contralateral tumor, every third day
Protocol: FIG. 1: Intratumoral magnesium administration improves adaptive anti-tumor immunity. (a) Schematic of experimental design. B1/6 mice, either immunized with OVA or left untreated, were inoculated subcutaneously with MC38-OVA tumor cells bilaterally on the flanks. From day 7, injection of 3 mM NaCl solution was applied in left flank tumor, whereas 3 mM MgCl2 solution was injected in contralateral tumor. This regimen was repeated every third day for a total of 8 cycles. (b) Tumor growth curves in non-immunized mice (n=20) (left panel), and immunized mice (n=19) (right panel). (c) Tumor growth curves in ±CD8 depleted mice (n=6-17). Results were pooled from 2 independent experiments, with n=6-12 mice each. (d) Absolute numbers of tumor-infiltrating CD8^+ T cells. (e) Number of tumor-infiltrating CD8^+ T cells positive for Ki67 (left panel), Granzyme B (middle panel) and CD25 (right panel). (f) Cell number of tumor-infiltrating CD8^+ T cells expressing PD-1 and Tim3. (g) Schematic of experimental design. B1/6 mice, immunized with OVA, were inoculated subcutaneously with MC38-OVA tumor cells unilaterally on the flank. From day 5, intratumoral injections of either 3 mM NaCl or 3 mM MgCl2 were initiated, and repeated every third day for 8 cycles. Mice were additionally injected with 200 μg i.p. of isotype control (IgG2a) or anti-PD-1 Ab on day 9, 12, and 15. (h) Tumor growth curves (n=13-14) and (i) host survival (n=13-14). Results were pooled from 2 independent experiments (b, h, i). Unless stated otherwise, 6 to 12 weeks old female mice were used for experiments. In assays with pre-immunized mice, mice were immunized 19 days before tumor implantation by subcutaneous injection of 100 μg of OVA protein (Invivogen) and 50 μg of CpG-B ODN 1826 (Eurogentec), resuspended in 100 μL of PBS. For tumor implantation, mice were inoculated subcutaneously onto the flanks with 0.5×10^6 MC38-OVA cells, resuspended in 100 μL of PBS. In bilateral tumor experiments, mice received 50 μL intra-tumoral injections of either 3 mM NaCl or 3 mM MgCl2 (both diluted in ddH2O). Injections of NaCl solution was applied in left flank tumor, whereas MgCl2 solution was injected in contralateral tumor. I.t. injections were initiated once tumors were palpable, usually between day 5 and 10 after tumor injection. Injections were repeated every third day. Tumor size was quantified using a caliper and tumor volume was calculated using a rational ellipse formula (α2×β×π6, α being the shorter axis and β the longer axis). […] Tumor tissue was isolated from mice, weighed and minced using razor blades. Tissue was then digested using accutase (PAA), collagenase IV (Worthington), hyaluronidase (Sigma), and DNAse type IV (Sigma) for 60 min at 37° C. with constant shaking. The cell suspensions were filtered using a cell strainer (70 μm). Precision Counting beads (Biolegend) were added before staining to quantify the number of cells per gram of tumor. Single cell suspensions were blocked with rat anti-mouse FcγIII/II receptor (CD16/CD32) blocking antibodies (‘Fc-block’) and stained with live/dead cell-exclusion dye. Cells were then incubated with fluorophore-conjugated antibodies directed against cell surface antigens, washed and resuspended in FACS buffer (PBS+2% FBS). For intracellular/intranuclear antigens, cells stained with cell surface antibodies were fixed and permeabilized using Foxp3/transcription factor staining buffer (eBioscience) prior to incubation with antibodies directed against intracellular antigens. CD8 T cells are essential for antitumor immunity. To explore the role of Mg^2+ in the tumor microenvironment, and specifically its functional impact on T cell immunity, we examined the effect of intratumoral (i.t.) Mg^2+ administration in the MC38-OVA tumor model. Specifically, mice were either immunized against ovalbumin (OVA) or left untreated before subcutaneous implantation of OVA-expressing MC38 colorectal carcinoma cells bilaterally on the flanks. […]

[Mg+2] [Mg^2+, Magnesium]
Tumor growth in ±CD8 depleted mice [1]: exerted its effect via CD8^+ T cells | Tumor-infiltrating CD8^+ T cells expressing PD-1 and Tim3 ([2]; Mg^2+ treated vs NaCl tumors): significantly more often (co-)expressed | Tumor-infiltrating CD8^+ T cells positive for CD25 ([2]; Mg^2+ treated vs NaCl tumors): more | Tumor-infiltrating CD8^+ T cells positive for Granzyme B ([2]; Mg^2+ treated vs NaCl tumors): more | Tumor-infiltrating CD8^+ T cells positive for Ki67 ([2]; Mg^2+ treated vs NaCl tumors): more | Number of tumor-infiltrating CD8^+ T cells ([2]; Mg^2+ treated vs NaCl tumors, flow cytometry): increased | Tumor growth ([2]; OVA pre-immunized mice): significantly reduced tumor growth | Tumor growth ([2]; non-immunized mice): comparable
